Results taken from patent publication US5217960A, “Erythromycin derivatives” (priority 1991, dated 1993).
Values after ≈ are worked out from the molar mass of the structure shown.

Legend:
Format in all cases: cell-based
[1] = test system: STAPHYLOCOCCUS AUREUS 1775; test: In vitro antibacterial activity, agar dilution MIC; details: S. aureus 1775, BHI agar, 35-37° C., 20 to 24 hours, read-out: MIC
[2] = test system: STREPTOCOCCUS PYOGENES 2548 INDUC; test: In vitro antibacterial activity, agar dilution MIC; details: S. pyogenes 2548 INDUC, BHI agar, 35-37° C., 20 to 24 hours, read-out: MIC
PSEUDOMONAS CEPACIA 296I = test: In vitro antibacterial activity, agar dilution MIC; details: Burkholderia cepacia; P. cepacia 296I; BHI agar, 35-37° C., 20 to 24 hours; read-out: MIC
[3] = test system: PSEUDOMONAS AERUGINOSA A5007; test: In vitro antibacterial activity, agar dilution MIC; details: P. aeruginosa A5007, BHI agar, 35-37° C., 20 to 24 hours
[4] = test system: STREPTOCOCCUS PYOGENES 930 CONST; test: In vitro antibacterial activity, agar dilution MIC; details: 24 h
[5] = test system: STAPHYLOCOCCUS AUREUS A5177; test: In vitro antibacterial activity, agar dilution MIC; details: S. aureus A5177, BHI agar, 35-37° C., 20 to 24 hours, read-out: MIC
[6] = test system: PSEUDOMONAS AERUGINOSA K799/WT; test: In vitro antibacterial activity, agar dilution MIC; details: P. aeruginosa K799/WT, BHI agar, 35-37° C., 20 to 24 hours
[7] = test system: STREPTOCOCCUS BOVIS A5169; test: In vitro antibacterial activity, agar dilution MIC; details: S. bovis A5169; BHI agar, 35-37° C., 20 to 24 hours; read-out: MIC
[8] = test system: PSEUDOMONAS AERUGINOSA BMH10; test: In vitro antibacterial activity, agar dilution MIC; details: P. aeruginosa BMH10, BHI agar, 35-37° C., 20 to 24 hours, read-out: MIC
[9] = test system: KLEBSIELLA PNEUMONIAE ATCC 8045; test: In vitro antibacterial activity, agar dilution MIC; details: ATCC8045, K. pneumoniae ATCC 8045, BHI agar, 35-37° C., 20 to 24 hours, read-out: MIC
STAPHYLOCOCCUS AUREUS 45 = test: In vitro antibacterial activity, agar dilution MIC; details: S. aureus 45, BHI agar, 35-37° C., 20 to 24 hours, read-out: MIC
ESCHERICHIA COLI SS = test: In vitro antibacterial activity, agar dilution MIC; details: E. coli SS, BHI agar, 35-37° C., 20 to 24 hours, read-out: MIC
ESCHERICHIA COLI KNK 437 = test: microbe, parasite or virus in culture; details: E. coli KNK 437, BHI agar, 35-37° C., 20 to 24 hours
[10] = test system: ENTEROBACTER AEROGENES ATCC 13048; test: In vitro antibacterial activity, agar dilution MIC; details: Klebsiella aerogenes, ATCC13048; E. aerogenes ATCC 13048; BHI agar, 35-37° C., 20 to 24 hours; read-out: MIC
ESCHERICHIA COLI DC-2 = test: In vitro antibacterial activity, agar dilution MIC; details: E. coli DC-2, BHI agar, 35-37° C., 20 to 24 hours, read-out: MIC
[11] = test system: STAPHYLOCOCCUS AUREUS ATCC 6538P; test: In vitro antibacterial activity, agar dilution MIC; details: ATCC6538P, 24 h
ESCHERICHIA COLI JUHL = test: microbe, parasite or virus in culture; details: E. coli JUHL, BHI agar, 35-37° C., 20 to 24 hours, read-out: MIC
[12] = test system: STAPHYLOCOCCUS AUREUS 642A; test: In vitro antibacterial activity, agar dilution MIC; details: 24 h
STR[…] 508 = test: In vitro antibacterial activity, agar dilution MIC; details: Streptococcus agalactiae, 24 h
Experimental: (§1) Representative compounds of the present invention were assayed in vitro for antibacterial activity as follows: Twelve petri dishes containing successive aqueous dilutions of the test compound mixed with 10 ml of sterilized Brain Heart Infusion (BHI) agar (Difco 0418-01-5) were prepared. Each plate was inoculated with 1:100 (or 1:10 for slow-growing strains, such as Micrococcus and Streptococcus) dilutions of up to 32 different microorganisms, using a Steers replicator block. The inoculated plates were incubated at 35°-37° C. for 20 to 24 hours. In addition, a control plate, using BHI agar containing no test compound, was prepared and incubated at the beginning and end of each test.
(§2) An additional plate containing a compound having known susceptibility patterns for the organisms being tested and belonging to the same antibiotic class as the test compound was also prepared and incubated as a further control, as well as to provide test-to-test comparability. Erythromycin A was used for this purpose.
(§3) After incubation, each disk was read. The minimum inhibitory concentration (MIC) was defined as the lowest concentration of drug yielding no growth, a slight haze, or sparsely isolated colonies on the inoculum spot as compared to the growth control.

STR[…] EES61 = test: In vitro antibacterial activity, agar dilution MIC; details: Streptococcus pyogenes, 24 h
Experimental: as §1, §2, §3

ESCHERICHIA COLI H560 = test: In vitro antibacterial activity, agar dilution MIC; details: E. coli H560, BHI agar, 35-37° C., 20 to 24 hours, read-out: MIC
[13] = test system: PROVIDENCIA STUARTII CMX 640; test: microbe, parasite or virus in culture; details: P. stuartii CMX 640, BHI agar, 35-37° C., 20 to 24 hours
[14] = test system: STAPHYLOCOCCUS AUREUS CMX 553; test: In vitro antibacterial activity, agar dilution MIC; details: S. aureus CMX 553, BHI agar, 35-37° C., 20 to 24 hours, read-out: MIC
[15] = test system: ACINETOBACTER CALCOACETICUS CMX 669; test: In vitro antibacterial activity, agar dilution MIC; details: A. calcoaceticus CMX 669, BHI agar, 35-37° C., 20 to 24 hours
[16] = test system: PSEUDOMONAS AERUGINOSA K799/61; test: In vitro antibacterial activity, agar dilution MIC; details: 24 h
Experimental: as §1, §2
as §3, with “control. The results of this assay, shown below in Tables 1 and 2, support the conclusion that the compounds of the invention are effective antibacterial agents.” for “control.”

M[…] ATCC 9341 = test: In vitro antibacterial activity, agar dilution MIC; details: Micrococcus luteus, ATCC9341, 24 h
Experimental: as §1, §2
as §3, with “control. The results of this assay, shown below in Tables 1 and 2, support the conclusion that the compounds of the invention are effective antibacterial agents.” for “control.”

M[…] ATCC 4698 = test: In vitro antibacterial activity, agar dilution MIC; details: Micrococcus luteus, ATCC4698, 24 h
Experimental: as §1, §2
as §3, with “control. The results of this assay, shown below in Tables 1 and 2, support the conclusion that the compounds of the invention are effective antibacterial agents.” for “control.”

EN[…] ATCC 8043 = test: In vitro antibacterial activity, agar dilution MIC; details: Enterococcus faecium, ATCC8043, 24 h
Experimental: as §1, §2
as §3, with “control. The results of this assay, shown below in Tables 1 and 2, support the conclusion that the compounds of the invention are effective antibacterial agents.” for “control.”

[17] = test system: STAPHYLOCOCCUS AUREUS NCTC 10649; test: In vitro antibacterial activity, agar dilution MIC; details: NCTC10649, S. aureus NCTC 10649, BHI agar, 35-37° C., 20 to 24 hours, read-out: MIC
[18] = test system: STAPHYLOCOCCUS EPIDERMIDIS 3519; test: microbe, parasite or virus in culture; details: S. epidermidis 3519, BHI agar, 35-37° C., 20 to 24 hours, read-out: MIC

For `CC[C@H]1OC(=O)[C@H](C)[C@@H](O[C@H]2C[C@@](C)(OC)[C@@H](O)[C@H](C)O2)[C@H](C)[C@@H](O[C@@H]2O[C@H](C)C[C@H](N(C)C)[C@H]2O)[C@](C)(O)C[C@@H](C)[C@@H](N)[C@H](C)[C@@H](O)[C@@]1(O)CN` [Compound 15, (9R)-9,21-diamino-9-deoxo-erythromycin A], which MIC [1] is on record?
The MIC was 100 µg/mL (≈ 133 µM).

And the MIC [2]?
Its MIC is greater than 100 µg/mL.

And the MIC (PSEUDOMONAS CEPACIA 296I)?
The MIC was 100 µg/mL (≈ 133 µM).

And the MIC [3]?
The MIC was greater than 100 µg/mL.

What about the MIC [4] of the same compound?
The MIC was 12.5 µg/mL (≈ 16.7 µM).

What about the MIC [5] of the same compound?
The MIC was greater than 100 µg/mL.

What about the MIC [6] of the same compound?
Its MIC is greater than 100 µg/mL.

And the MIC [7]?
The MIC was 100 µg/mL (≈ 133 µM).

And the MIC [8]?
Its MIC is greater than 100 µg/mL.

And the MIC [9]?
The MIC was greater than 100 µg/mL.

And the MIC (STAPHYLOCOCCUS AUREUS 45)?
The MIC was 100 µg/mL (≈ 133 µM).

What about the MIC (ESCHERICHIA COLI SS) of the same compound?
Its MIC is greater than 100 µg/mL.

And the MIC (ESCHERICHIA COLI KNK 437)?
Its MIC is 100 µg/mL (≈ 133 µM).

And the MIC [10]?
The MIC was greater than 100 µg/mL.

And the MIC (ESCHERICHIA COLI DC-2)?
Its MIC is 3.1 µg/mL (≈ 4.13 µM).

What about the MIC [11] of the same compound?
The MIC was 25 µg/mL (≈ 33.3 µM).

And the MIC (ESCHERICHIA COLI JUHL)?
The MIC was 100 µg/mL (≈ 133 µM).

What about the MIC [12] of the same compound?
Its MIC is 12.5 µg/mL (≈ 16.7 µM).

And the MIC (STR[…] 508)?
Its MIC is 12.5 µg/mL (≈ 16.7 µM).

And the MIC (STR[…] EES61)?
Its MIC is 25 µg/mL (≈ 33.3 µM).

And the MIC (ESCHERICHIA COLI H560)?
Its MIC is greater than 100 µg/mL.

And the MIC [13]?
The MIC was greater than 100 µg/mL.

And the MIC [14]?
The MIC was 100 µg/mL (≈ 133 µM).

What about the MIC [15] of the same compound?
The MIC was greater than 100 µg/mL.

And the MIC [16]?
Its MIC is greater than 100 µg/mL.

And the MIC (M[…] ATCC 9341)?
Its MIC is 50 µg/mL (≈ 66.7 µM).

And the MIC (M[…] ATCC 4698)?
The MIC was 12.5 µg/mL (≈ 16.7 µM).

What about the MIC (EN[…] ATCC 8043) of the same compound?
The MIC was 12.5 µg/mL (≈ 16.7 µM).

And the MIC [17]?
The MIC was 100 µg/mL (≈ 133 µM).

And the MIC [18]?
The MIC was greater than 100 µg/mL.
